Earlier results, collected in US9949941B2, “GABA analog prodrug sustained release oral dosage forms” (XENOPORT, INC., priority 2004, dated 2018).

Legend:
[1] = dosed either orally or directly into the colon of a mammal

SMILES | bioavailability as gabapentin [1] | Tmax following administration of gabapentin alone (fasted and fed patients) | typical Tmax of immediate release gabapentin (immediate release gabapentin)
CC(OC(=O)NCC1(CC(=O)O)CCCCC1)OC(=O)C(C)C (stereo not drawn) [Compound (1), 1-{[(α-isobutanoyloxyethoxy)carbonyl]aminomethyl}-1-cyclohexane acetic acid] | high bioavailability |  | 
NCC1(CC(=O)O)CCCCC1 [gabapentin] |  | 2 to 4 h | 2 to 4 h
